Experimental data from patent publication US20080220416A1, “Compositions for Inhibiting Cell Growth and Inducing Apoptosis in Cancer Cells and Methods of Use Thereof” (THE BOARD OF TRUSTEES OF THE UNIVERSITY OF ILLINOI, priority 2004, published 2008).
Square brackets hold non-standard residues; d marks the D form. Peptide text beside a SMILES is read from it. * marks the point of attachment. Nle = CCCC[C@H](N)C(=O)O; Cbz = O=C(OCc1ccccc1)*

Assays:
[1] = system: CaSki human cervical cancer cells; test: Cell growth inhibition assay in CaSki cervical cancer cells (crystal violet); format: cell-based
Method: The cell growth inhibition assay was performed in a 96-well plate format. Inhibition was assessed by monitoring the protein content in each well using the crystal violet staining method as described by Skehan et al., 1990, J Natl Cancer Inst 82:1107-1112 and Prochaska et al., 1988, Anal Biochem 169:328-336. Briefly, cells were plated at a density of 2×10^4 cells/ml in 200 μl of DMEM supplemented with 10% FBS. The cells were transfected with siRNAs ([…] siRNA oligos/well) using Oligofectamine Transfection Reagents (InVitrogen) according to manufacturer's instructions. Twenty-four hours post-transfection, the media was decanted, 190 μl of fresh media was added to each well, and 10 μl of cisplatin (4 mM) dissolved in 10% DMSO was added to the wells as a series 2-fold dilutions (final concentration of cisplatin in the wells ranged from 0.5-200 μM). The cells were incubated with cisplatin for 48 hrs, the media was decanted, and the cells were submerged with 200 μl of 0.2% crystal violet in 2% ethanol for 10 min. The plates were rinsed for 2 min with tap water. The bound dye was solublized by incubation at 37° C. for 1 h with 200 μl of 0.5% sodium dedecyl sulfate in 50% ethanol. The plates were then scanned with an ELISA reader at 562 nm. The percentage cell growth inhibition mediated by cisplatin was calculated as: % inhibition=[1-(OD of cisplatin-treated cells/OD DMSO-treated control cells)]×100/100.
CaSki human cervical cancer cells treated for 48 hrs with z-Leu-Leu-Nle-CHO alone were tested for cell growth inhibition. The cell growth inhibition assay was performed in a 96-well plate format. Inhibition was assessed by monitoring the protein content in each well using the crystal violet staining method Skehan, P. et al., 1990, J Natl Cancer Inst 82:1107-1112. Briefly, cells were plated at a density of 2×10^4 cells/ml in 200 μl of DMEM supplemented with 10% FBS. After pre-incubation period of 24 h, the media was decanted, 190 μl of fresh media was added to each well, and 10 μl (150 μM) of z-Leu-Leu-Nle-CHO dissolved in 10% DMSO was added to the wells as a series 2-fold dilutions (final concentration of cisplatin in the wells ranged from 0.05-7.5 μM). The cells were incubated with z-Leu-Leu-Nle-CHO for 48 hrs, the media was decanted, and the cells were submerged with 200 μl of 0.2% crystal violet in 2% ethanol for 10 min. The plates were rinsed for 2 min with tap water. The bound dye was solublized by incubation at 37° C. for 1 h with 200 μl of 0.5% sodium dedecyl sulfate in 50% ethanol. The plates were then scanned with an ELISA reader at 562 nm. The percentage cell growth inhibition mediated by test agents was calculated as: % inhibition=[1-(OD of z-Leu-Leu-Nle-CHO-treated cells/OD DMSO-treated control cells)]×100/100.
To determine whether z-Leu-Leu-Nle-CHO treatment potentiates the effect of cisplatin on human […] cancer cells, the CaSki cells were treated for 48 h with 0.1-0.8 μM z-Leu-Leu-Nle-CHO and various concentrations of cisplatin (2-fold dilutions of a cisplatin solution to produce final concentrations of 1.6-200 μM cisplatin). Following the z-Leu-Leu-Nle-CHO and cisplatin treatment, the cells were tested for growth inhibition as described above.
Isobologram analysis was performed by measuring the IC50 values of cisplatin in the presence of various concentrations of z-Leu-Leu-Nle-CHO. These IC50 values were plotted with SigmaPlot, and a straight line was traced between the IC50 values of cells treated with either cisplatin or z-Leu-Leu-Nle-CHO alone.

normal melanocytes = test: Proteasome inhibitors, apoptosis of normal melanocyte cultures (Annexin V FITC flow cytometry); format: cell-based, human
Method: (§1) The proteasome inhibitors lactacystin, MG-132, and bortezomib were evaluated for the ability to induce apoptosis in malignant melanoma cell lines (n=3) including an early passage line, RJ002L. MG-132 was obtained from Calbiochem (La Jolla, Calif.) and dissolved in DMSO. Lactacystin was purchased from Sigma Chemical Co. (St. Louis, Mo.) and dissolved in PBS. Bortezomib was obtained from a pharmacy as VELCADE (bortezomib) for Injection from a single use vial for intravenous use only (Millennium Pharmaceuticals, Cambridge, Mass.). A cell line with wild-type p53 (RJ002L) and two melanoma cell lines with mutant p53 alleles (C8161 and MUM2B) were included in this study. Two additional melanoma cell lines were also used: cutaneous SK-MeI-28 cells and primary, early passage MG012 cells. In addition, five normal melanocyte culture cell lines (MC-005, MC-006, MC-008, MC-009 and MC-011) were examined. Prior to testing, the melanoma cell lines were maintained in RPMI supplemented with 10% FBS. Normal human melanocytes were isolated from neonatal foreskins as previously described (Qin J et al., 2004, Mol Cancer Ther 3:895-902, 2004) and cultured with medium 154 containing growth supplements (Cascade Biologics, Portland, Oreg.).
To assess the effect of proteasome inhibitors on the cell lines, the cells were grown in suitable culture media as described above. […]
Following treatment with the proteasome inhibitors, the melanoma and melanocyte cell cultures were assayed for apoptotic cells using the APO TARGET Annexin V FITC staining kit (Biosource, Camarillo, Calif.) according to the manufacturer's instructions followed by flow cytometric analysis using FACScaliber (Becton Dickinson, Palo Alto, Calif.) as described in Qin, J. et al., 2001, Nat Med 7: 385-386. In some cases, cell cycle and apoptosis analysis was measured using propidium iodide staining and flow cytometry as described. […] For cell analysis, DNA histograms were analyzed using MultiCycle for Windows (Phoenix Flow Systems, San Diego, Calif.) as described in Denning, M. F. et al., 1998, J Biol Chem 273: 29995-30002.

melanoma cell lines = test: Proteasome inhibitors, apoptosis of melanoma cell lines (Annexin V FITC flow cytometry); format: cell-based, human
Method: as §1
To assess the effect of proteasome inhibitors on the cell lines, the cells were grown in suitable culture media as described above. Highly proliferating cells (i.e., cells that had reached approximately 30% confluency) were exposed to the inhibitors as described below. The culture media was replenished with media containing proteasome inhibitors at various concentrations and the cells were incubated for 24 hours prior to harvesting the cells for further analysis.
Following treatment with the proteasome inhibitors, the melanoma and melanocyte cell cultures were assayed for apoptotic cells using the APO TARGET Annexin V FITC staining kit (Biosource, Camarillo, Calif.) according to the manufacturer's instructions followed by flow cytometric analysis using FACScaliber (Becton Dickinson, Palo Alto, Calif.) as described in Qin, J. et al., 2001, Nat Med 7: 385-386. In some cases, cell cycle and apoptosis analysis was measured using propidium iodide staining and flow cytometry as described. Cells with DNA content less than the G0 amount of untreated cells were considered apoptotic. For cell analysis, DNA histograms were analyzed using MultiCycle for Windows (Phoenix Flow Systems, San Diego, Calif.) as described in Denning, M. F. et al., 1998, J Biol Chem 273: 29995-30002.

5′-AAGTGTCTGAGGCCAGCAAGA-3′ [Notch-1 siRNA]
effect on cytotoxicity of cisplatin ([1]; siRNA 24 h before cisplatin): strikingly potentiated the cytotoxicity of cisplatin

CC(C)C[C@@H](C=O)NC(=O)[C@H](CC(C)C)NC(=O)[C@H](CC(C)C)NC(=O)OCc1ccccc1 [MG-132, benzoxycarbonyl-Leucyl-Leucyl-Leucyl-aldehyde] (Cbz-Leu-Leu-Leu-aldehyde)
cells undergoing apoptosis (normal melanocytes; MC-005, MC-006, MC-008, 24 hrs, 1, 5 or 10 μM): No more than 10% | apoptotic response to increasing concentrations (melanoma cell lines; RJ002L, MG012, C8161, MUM2B, SK-MeI-28, 1-10 μM, 24 hrs): significantly enhanced apoptotic responses

CC(C)C[C@H](NC(=O)[C@H](Cc1ccccc1)NC(=O)c1cnccn1)B(O)O [bortezomib, N-(2-pyrazine)carbonyl-L-phenylalanine-L-leucine boronic acid]
apoptotic response (normal melanocytes; MC009 and MC011, 0.01 to 10 μM, 24 hrs continuous exposure): less than 10% | concentration triggering significant apoptotic response (p<0.05) (melanoma cell lines; all melanoma cell lines examined): ≥ 0.1 µM | dead cells (melanoma cell lines; all melanoma cell lines tested, 10 μM, 24 hrs continuous exposure): 30-70%

CCCC[C@@H](C=O)NC(=O)[C@H](CC(C)C)NC(=O)[C@H](CC(C)C)NC(=O)OCc1ccccc1 [z-Leu-Leu-Nle-CHO, N-benzyloxycarbonyl-leucyl-leucyl-norleucinal] (Cbz-Leu-Leu-[Nle]-aldehyde)
effect on cisplatin cell growth inhibition ([1]; 0.1-0.8 μM, doses lower than IC50, 48 h): potentiated the effects of cisplatin | IC50 ([1]; Homo sapiens, Ca-Ski, alone, 48 hrs, read-out: IC50, cell growth inhibition): 640 nM | isobologram analysis with cisplatin ([1]; especially at low cisplatin concentrations (1-50 μM)): moderate synergism
